According to PubChem BioAssay AID1963834 (Molecular Pharmacology Branch, DTP, NCI, 2024):

Test system: 873145-292-R-J1-PDC complex spheroid viability
Assay: Anticancer human tumor 873145-292-R-J1-PDC patient-derived renal clear cell carcinoma cell line growth inhibition [POLQ]
Settings: for IC50: curve of first compound; for viability, T/C: stronger effect = lower value
Summary of the method: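 Growth inhibition in 3D: complex spheroids (tumor PDC, HUVEC, MSC) treated with POLQ inhibitor combinations; where Cmax unknown, highest tested concentration 10 microM, except SN-38 at 1 microM.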
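Also: spheroids exposed to compounds for 7 days before viability readout.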
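For viability, T/C in this document: luminescence signal used as surrogate for viable cell content; 100% = DMSO vehicle control viability.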

## CC1COCCN1c1cc(C2(O)CC3CCC(C2)O3)c2cnn(-c3ccn[nH]3)c2n1 (configuration not stated) + Nc1ccc(C#CCN(C(=O)Cc2ncc(C(F)(F)F)cc2C(F)(F)F)c2ccc(F)cc2)nn1
Second compound 0.0316 µM
  IC50: 2400 nM
Second compound 0.1 µM
  IC50: 1090 nM
Second compound 0.316 µM
  IC50: > 10000 nM
Second compound 1 µM
  IC50: 1680 nM
Second compound 3.16 µM
  IC50: > 10000 nM
Second compound 10 µM
  IC50: > 10000 nM
Second compound 0.0316 µM, first compound 0.0316 µM
  viability, T/C: 101%
Second compound 0.0316 µM, first compound 0.1 µM
  viability, T/C: 84%
Second compound 0.0316 µM, first compound 0.316 µM
  viability, T/C: 61.3%
Second compound 0.0316 µM, first compound 1 µM
  viability, T/C: 52.8%
Second compound 0.0316 µM, first compound 3.16 µM
  viability, T/C: 50.3%
Second compound 0.0316 µM, first compound 10 µM
  viability, T/C: 47.6%
Second compound 0.1 µM, first compound 0.0316 µM
  viability, T/C: 111%
Second compound 0.1 µM, first compound 0.1 µM
  viability, T/C: 81.9%
Second compound 0.1 µM, first compound 0.316 µM
  viability, T/C: 61.5%
Second compound 0.1 µM, first compound 1 µM
  viability, T/C: 48.1%
Second compound 0.1 µM, first compound 3.16 µM
  viability, T/C: 49.8%
Second compound 0.1 µM, first compound 10 µM
  viability, T/C: 40.9%
Second compound 0.316 µM, first compound 0.0316 µM
  viability, T/C: 94.3%
Second compound 0.316 µM, first compound 0.1 µM
  viability, T/C: 79.4%
Second compound 0.316 µM, first compound 0.316 µM
  viability, T/C: 54.9%
Second compound 0.316 µM, first compound 1 µM
  viability, T/C: 50.4%
Second compound 0.316 µM, first compound 3.16 µM
  viability, T/C: 59.4%
Second compound 0.316 µM, first compound 10 µM
  viability, T/C: 45.6%
Second compound 1 µM, first compound 0.0316 µM
  viability, T/C: 89.2%
Second compound 1 µM, first compound 0.1 µM
  viability, T/C: 72.2%
Second compound 1 µM, first compound 0.316 µM
  viability, T/C: 59.9%
Second compound 1 µM, first compound 1 µM
  viability, T/C: 50.2%
Second compound 1 µM, first compound 3.16 µM
  viability, T/C: 51.2%
Second compound 1 µM, first compound 10 µM
  viability, T/C: 42.4%
Second compound 3.16 µM, first compound 0.0316 µM
  viability, T/C: 89.2%
Second compound 3.16 µM, first compound 0.1 µM
  viability, T/C: 81%
Second compound 3.16 µM, first compound 0.316 µM
  viability, T/C: 67.5%
Second compound 3.16 µM, first compound 1 µM
  viability, T/C: 53.2%
Second compound 3.16 µM, first compound 3.16 µM
  viability, T/C: 56.8%
Second compound 3.16 µM, first compound 10 µM
  viability, T/C: 46.9%
Second compound 10 µM, first compound 0.0316 µM
  viability, T/C: 99.3%
Second compound 10 µM, first compound 0.1 µM
  viability, T/C: 94.5%
Second compound 10 µM, first compound 0.316 µM
  viability, T/C: 66%
Second compound 10 µM, first compound 1 µM
  viability, T/C: 57.1%
Second compound 10 µM, first compound 3.16 µM
  viability, T/C: 55.3%
Second compound 10 µM, first compound 10 µM
  viability, T/C: 48.2%
